Measurements from PMC7867085, “In Vitro and In Vivo Antitumor Activity of Indolo[2,3-b] Quinolines, Natural Product Analogs from Neocryptolepine Alkaloid” (Molecules, 2021).

What was measured:
[1] = system: solid-tumor (EAC) bearing mice (liver homogenate); test: Lipid peroxidation and antioxidant enzymes in liver homogenate of solid-tumor bearing mice; assay type: in vivo, Swiss female albino mice; details: 100 mg/kg for 5 days; for CAT / Lipid Peroxidation / SOD: liver
Protocol: Measuring antioxidant enzyme levels and lipid peroxidation was utilized to evaluate the pharmacological effect of indoloquinoline derivatives. The study group was divided into two subgroups, normal mice and tumor-bearing mice. Each subgroup is further subdivided into two groups, one group received indoloquinoline derivatives, and the other group was marked as a placebo group.
After administration of indoloquinoline analogs 6a, 6b, 6c and 6d at a dose of 100 mg/kg for 5 constitutive days to mice with EAC, the levels of lipid peroxidation were highly significant less than that of the positive control group (p < 0.001). Meanwhile, the level of SOD in the liver homogenate of positive bearing mice was 32.1% (p < 0.001) less than that of the normal group (Table 5).
The eradicated liver was double washed first, with ice-cold normal saline then, with cold 0.15 mol/L Tris-HCl buffer (pH 7.4). The clean organ was dried and weighed, and used to prepare a 10% w/v homogenate in 0.15 mol/L Tris-HCl buffer. A portion of the prepared homogenate was centrifuged at 1500 rpm for 15 min at 4 °C [47] and used for estimating lipid peroxidation, SOD [48] and CAT [49] analysis was carried out using the supernatant.

liver = test: Histopathological examination of liver sections (H and E); assay type: in vivo; details: for liver degenerative changes (histopathology): mice treated with compound, Figure 5
Text: It is well known that the vital organ enables the human body to get rid of toxins, as organic xenobiotics in the liver. Tissue changes in the liver are linked with histological abnormalities. Possible unwanted effects of the Indoloquinolines were checked in the mice group that received the compound; 5 days after subcutaneous injection of the compounds, tumors and livers were fixed in 10% neutral buffered formalin solution and embedded in paraffin. Sections, […], were stained using hematoxylin and eosin (H and E).
Each tumor or liver sample for each mouse was separated and kept in 10% formalin solution and dehydrated in a graded alcohol series. Each specimen was treated with xylene and then inserted in paraffin blocks. The specimen was cut into sections, the thickness of each section is five-micron, hematoxylin, and eosin (H and E) were added for staining. The stained liver specimen was used to assess the degree of degradation and necrosis using a reported scaling system; the scaling system use numbers from 0 to 3 to reflect necrosis severity. Starting from 0, which indicates no necrosis and moves to mild, moderate, and severe necrosis indicated by 1, 2, and 3, respectively. Mild and moderate stages are defined as focal and multifocal necrosis or degradation of hepatocytes, respectively, while severe is characterized by local immense, spread out necrosis or damaged liver cells. Tumor specimen stained with H and E were used to evaluate the severity and percentage of necrosis by the same previously mentioned scaling system.

[2] = system: Ehrlich ascites carcinoma (EAC) cells; test: In vitro cytotoxic activity, trypan blue dye exclusion; assay type: cell-based, mice; details: 3 h incubation at 37 °C
Protocol: The synthesized indoloquinoline analogs 6a–d were evaluated for their cytotoxic activity against Ehrlich ascites carcinoma (EAC), as depicted in Table 1. The EAC cells used in this study were supplied by National Cancer Institute, Cairo, Egypt. The cells were maintained in vivo in Swiss Albino female mice by intraperitoneal transplantation (0.2 mL of 2 × 10^6 cells/mL). EAC cells were aspirated from the peritoneal cavity of mice, washed with saline and given intraperitoneally to develop ascites tumor. Trypan blue dye exclusion technique was used to figure the viability percentage of EAC cells to assay the cytotoxic activity of the studied compounds. In brief, under completely sterile conditions, EAC cells were separated away from the mice abdomens. Hank’s balanced salt solution (HBSS) was used to wash the separated cells. Cells were put in a cooling centrifuge at 1500 rpm for 15 min; the produced granules were put back into suspension using HBSS, the mentioned steps were done in triplicate. Finally, a measured volume of RPMI 1640 was used to suspend the cells, followed by the addition of 10% fetal bovine serum, 10 µg/mL streptomycin and 100 U/mL penicillin. Consequently, the cell count was adjusted to 2 × 10^6 cells/mL from the prepared diluted cell suspension 0.2 mL was titrated in 96 flat-bottomed tissue culture plates. Serial concentrations of each tested compound were prepared and added in triplicate and incubated at 37 °C for 3 h in a 5% CO2 atmosphere. The IC50 parameter (half-maximum inhibitory concentration) was calculated using Trypan blue dye exclusion test, and then the cytotoxic effect was evaluated using control EAC cells. Thalidomide was used as a reference drug alongside the parent natural compound neocryptolepine I for comparison. Thalidomide was used as a reference drug because its mechanism of action is expected to be similar to the mechanism of action of neocryptolepine analogs as its anticancer action may be based on its antiangiogenic action, resulting from specific DNA intercalation as well as induce cell cycle arrest.
The percentage of EAC cell death of the synthesized derivatives was evaluated by trypan blue exclusion assay. In addition, the compounds 6a–d, as well as the reference drug thalidomide and the parent natural compound neocryptolepine (I), were evaluated through eight concentration levels. It is worth noting that this cytotoxicity was dose-dependent when compared to the reference drug, thalidomide and the control, which was treated with the corresponding dilutions of DMSO.
As a preparation step to perform cytotoxicity assay against the EAC cell line, thalidomide, parent neocryptolepine and the indoloquinoline compounds a 6a, 6b, 6c and 6d were dissolved in DMSO/saline (0.3:0.7) to prepare a solution of 10 mmol concentration. The stock solutions were stored at 4 °C and were used all over the assay. EAC cells were supplied by the National Cancer Institute, Cairo, Egypt. The cells were maintained in vivo in Swiss albino female mice by intraperitoneal transplantation (0.2 mL of 2 × 10^6 cells/mL). EAC cells were aspirated from the peritoneal cavity of mice, washed with saline, and given intraperitoneally to develop ascites tumor.
Trypan blue dye exclusion technique was used to figure the viability percentage of EAC cells to assay the cytotoxic activity of the studied compounds. In brief, under completely sterile conditions, EAC cells were separated away from the mice’s abdomen. Hank’s balanced salt solution (HBSS) was used to wash the separated cells. The cells were put in a cooling centrifuge at 1500 rpm for 15 min; the produced granules were put back into suspension using HBSS, the mentioned steps were done in triplicate. Finally, a measured volume of RPMI 1640 was used to suspend the cells, followed by the addition of 10% fetal bovine serum, 10 µg/mL streptomycin and 100 U/mL penicillin and the cell count was adjusted to 2 × 10^6 cells/mL. […]

[3] = 5 days after subcutaneous injection, H and E

Compound	increase of CAT level against positive control [1] [%]	increase of SOD level in relation to positive control group [1] [%]	CAT [1] [KU/mg Tissue/s]	Lipid Peroxidation [1] [nmol MDA/g Tissue]	SOD [1] [U/g Tissue]	necrosis of liver cells (liver; mouse, in vivo, sc)	IC50 [2] [nM]	necrosis of liver cells (liver; [3])	liver degenerative changes (histopathology) (liver; H and E)	IC50 ([2]; Mus musculus, Ehrlich) [nM]
5(5-Methyl-5H-indolo[2,3-b] quinolin-11-ylamino) Pyrimidine-2,4(1H,3H)-dione [Compound 6c]	107.3	36.24	8.5 ± 0.34	262.1 ± 1.9	129.47 ± 1.38	did not cause necrosis to liver cells	0.33	–	–	–
5-Methyl-N-(4-methylpiperazin-1-yl)-5H-indolo[2,3-b] Quinolin-11-amine [Compound 6d]	65.8	39.8	6.8 ± 0.12	249.9 ± 2.2	132.86 ± 0.55	did not cause necrosis to liver cells	0.15	–	–	–
Cn1c2nc3ccccc3c-2c(Nc2ccc(Br)cc2F)c2ccccc21 [Compound 6a, N-(4-Bromo-2-fluorophenyl)-5-methyl-5H-indolo[2,3-b] Quinolin-11-amine]	51.2	54.4	6.2 ± 0.14	249.3 ± 2.1	146.75 ± 2.11	–	–	did not cause necrosis to liver cells	mild degenerative changes	0.17
Cn1c2nc3ccccc3c-2c(NCCc2c[nH]c3ccccc23)c2ccccc21 [Compound 6b, N-(2-(1H-Indol-3-yl)ethyl)-5-methyl-5H-indolo[2,3-b] Quinolin-11-amine]	78.04	53.69	7.3 ± 0.16	268.9 ± 2.8	146.06 ± 3.11	–	–	did not cause necrosis to liver cells	mild diffuse degenerative changes, mild congestion, and scattered lymphocytes	0.064
